From patent publication US9045490B2, “Use of parthenolide derivatives as antileukemic and cytotoxic agents” (University of Kentucky, priority 2003, dated 2015)
Read-outs that look alike come from different tables or passages of the source.

Columns and labels:
[1] = system: normal hematopoietic stem cells; experiment: Human-mouse xenograft: NOD/SCID engraftment of normal donor cells treated in vitro; assay type: in vivo; conditions: 7.5 micromolar in vitro for 12-18 hours, bone marrow analysed after 6-8 weeks (CD45)
Procedure: (§1) To assess the effect of parthenolide on primary human stem cell populations, experiments were conducted using transplantation into immune deficient NOD/SCID mice. […] For each experiment, cryopreserved mononuclear cell specimens from normal or AML donors were thawed, and treated in vitro with 7.5 micromolar parthenolide for 12-18 hours. Following culture, 5-10 million cells/animal were injected intravenously into sublethally irradiated (300 Rad) NOD/SCID mice. After 6-8 weeks, animals were sacrificed and bone marrow was analyzed for the presence of human cells using flow cytometry as previously described (Guzman et al., Proc Natl Acad Sci USA 2002; 99: 16220-162253). Human specific antibodies for CD45 were used to assess the level of total engraftment.

[2] = system: primary acute myelogenous leukemia (AML) cells; experiment: Assay for antileukemic activity (Annexin V/7-AAD apoptosis analysis by flow cytometry); assay type: cell-based; conditions: 24 hours of culture
Procedure: For apoptosis analysis, one million primary acute myelogenous leukemia (AML) cells were washed with cold PBS and resuspended in 200 microliters of Annexin binding buffer (10 mM HEPES/NaOH pH 7.4; 140 mM NaCl; 2.5 mM CaCl2). Annexin V-FITC (Pharmingen) and 0.25 mg/mL 7-AAD (7-aminoactinomycin D, Molecular Probes, CA) were added and the tubes were incubated at room temperature in the dark for 15 minutes. Cells were then diluted with 200 microliters of Annexin binding buffer and analyzed immediately by flow cytometry. Viable cells were identified as failing to label with Annexin V or 7-AAD. Cells beginning to die label with Annexin V, and as membrane integrity is lost, will also label with 7-AAD. […] Data are normalized to untreated control specimens. The data are in Table 1 for aminoparthenolide derivatives and Table 2 for the salts of some aminoparthenolides.

[3] = system: hormone refractory prostate cancer cell line CWR22Rv1; experiment: MTS-PMS cellular proliferation assay; assay type: cell-based; conditions: at 5 μm, CWR22 MTS-PMS assay
Procedure: A 96-well U-bottomed plate (Becton Dickinson Labware, Franklin Lakes, N.J.) at a concentration of 5,000 cells per 50 microliters […] of media was incubated in 5% CO2 at 37° C. for 24 hours. Varying compound concentrations in […] of media were added to the media 24 hours later. Colorimetric readings were obtained using the MTS/PMS system and an ELISA plate reader, after 48 hours of exposure to DMAPT. The readings obtained for each concentration tested were from an average of eight wells. Each experiment was expressed as a percentage of the solvent control and completed at least three times with consistent results. The results presented are an average of three experiments. The hormone refractory prostate cancer cell line CWR22Rv1 was treated with increasing concentrations of parthenolide and DMAPT. for three hours Both parthenolide and DMAPT reduced cellular proliferation by 50% at 5 μm in the CWR22 MTS-PMS assay. Cellular proliferation was also measured in the MTS-PMS assay using four lung cancer cell lines treated with parthenolide and derivatives PIPT ((11S,11,13-dihydro,13-(piperidin-1-yl)parthenolide), 4MEPT (11S,11,13-dihydro,13-(4-methylpiperidin-1-yl)parthenolide) and MAPT (11S,11,13-dihydro,13-dimethylaminoparthenolide). Parthenolide and its derivatives inhibited cellular proliferation in a dose dependent manner between 2 and 10 μM with 70% inhibition at 10 μM in A549, 50% in H460, 40% in H-23 and 40% in H522 (FIGS. 2-5).

[4] = system: AML cells (AML stem cell compartment); experiment: Human-mouse xenograft: NOD/SCID engraftment of AML cells treated in vitro; assay type: in vivo, human cells in NOD/SCID mice; conditions: 7.5 micromolar in vitro for 12-18 hours, bone marrow analysed after 6-8 weeks (CD45)
Procedure: as §1

[5] = Oral bioavailability in mice: plasma level by LC-MS; assay type: in vivo; conditions: mouse, 40 mg/kg oral, read-out: plasma level one hour after oral gavage
Procedure: Preliminary in vivo work was conducted to determine the bioavailability and toxicity of this agent in mice.

[6] = system: breast cancer cell line hbl-100; experiment: Clonogenic assay; assay type: cell-based; conditions: hbl-100, 2 μm concentration (parthenolide: similar dosage ranges)
[7] = system: human monocyte cell line THP-1; experiment: cDNA array analysis of inflammation genes; assay type: cell-based
Procedure: Total cellular RNA was extracted from the human monocyte cell line THP-1 under three conditions 2 hours after Time 0:
1) Control was added at Time 0 […]
RNA was extracted using RNeasy Min Kit (Qiagen, USA) according to the manufacturer's instructions. The Human Drug Targets for Inflammation and Immunomodulation Q series GE array kit (HS-048-12) was obtained from SuperArray Bioscience Corporation (Frederick, Md.). The kit determines expression of 96 genes that are associated with inflammation. RNA from respective samples was used as a template to generate biotin labeled cDNA probes using GEArray Ampolabelling RT kit (SuperArray, Bioscience Corp., USA). The cDNA probes corresponding to the mRNA population were then denatured and hybridization was carried out in GEHyb solution to nylon membranes spotted with gene specific fragments. Membranes were then washed in 2×SSC, 1% SDS twice for 15 minutes each, followed by 0.1 SSC, 0.5% SDS twice for 15 minutes each. Chemiluminescence was used to visualize the expression levels of each transcript and the results were quantified with the GEArray Analyzer. The change in a given gene transcript was estimated by normalizing the signal intensities with the signal derived from PPIA and with minimum background subtraction.

[8] = system: MDA-MB-231 breast cancer cells; experiment: TRAIL induced apoptosis assay (carboxyfluorescein-FLICA, FACScan); assay type: cell-based; conditions: 2 or 5 μM pre-treatment two hours, then TRAIL 5 ng/ml or TRAIL-RII antibodies 10 ng/ml, 48 hours
Procedure: MDA-MB-231 breast cancer cells (2×10^5 cells in 60 mm plates) were treated first with 2 or 5 μM of DMAPT (LC-1). After two hours, TRAIL (TNF related-apoptosis-inducing-ligand, 5 ng/ml) or TRAIL-RII-activating antibodies (10 ng/ml) were added. After 48 hours of TRAIL or TRAIL-RII antibody treatment, cells were harvested and apoptosis was measured using carboxyfluorescein-FLICA assay. Briefly, both attached and floating cells were collected by trypsinization, incubated with carboxyfluorescein-labeled pan-caspase inhibitor FAM-VAD-FMK for 2 h at 37° C. Labeled cells were rinsed twice in PBS and resuspended in 300 μl of PBS containing 0.3 μg of propidium iodide. Apoptotic cells were identified by FACScan analysis. […] FAM-VAD-FMK stains apoptotic cells (upper left). Apoptotic cells that have lost plasma membrane integrity are stained by both FAM-VAD-FMK and propidium iodide (upper right). Necrotic cells are stained only by propidium iodide (lower right). MDA-MB-231 cells are relatively resistant to TRAIL.

[9] = system: breast cancer cell line 436; experiment: Clonogenic assay; assay type: cell-based; conditions: 436 cells, 2 μm concentration (parthenolide: similar dosage ranges)
[10] = DMAPT (10 micromoles) pre-treatment for 2 hours then 1 hour treatment of LPS (10 nM)

Compound: C/C1=C\CC[C@@]2(C)O[C@@H]2[C@H]2OC(=O)[C@H](CN(C)C)[C@@H]2CC1 [DMAPT, 11S,11,13-Dihydro,13-dimethylaminoparthenolide]
- level of engraftment of treated normal cells in NOD/SCID mice [1]: no significant effects
- Antileukemic activity ([2]; 5 μM): 5 μM, 31%
- Antileukemic activity ([2]; 10 μM, normalized to untreated control): 10 μM, 90%
- Antileukemic activity ([2]; 20 μM): 20 μM, 95%
- reduction of cellular proliferation [3]: 50%
- level of engraftment of treated AML cells in NOD/SCID mice [4]: strong reduction
- concentration at 1 h ([5]; LC-MS, average of 5 mice): ~2500 ng/mL
- concentration at 1 h ([5]; conversion of the ng/mL value): 8 µM
- inhibition of proliferation [6]: almost complete inhibition
- % Change of Genes: Intercellular Adhesion Molecule 1 [7, 10]: 58%
- % Change of Genes: Nitric oxide synthase 2A (inducible) [7, 10]: 48%
- % Change of Genes: Tumor necrosis factor (ligand) superfamily, member 5 [7, 10]: 23%
- transcription of tumor necrosis factor (TNF), relative to control ([7]; pretreatment with DMAPT, then LPS): 2 % of control
- sensitisation to TRAIL or TRAIL-RII activating antibody-induced apoptosis [8]: became sensitive
- inhibition of proliferation [9]: almost complete inhibition
